# Measurements reported in patent US20160002247A1, “8-SUBSTITUTED IMIDAZOPYRIMIDINONE DERIVATIVE HAVING AUTOTAXIN INHIBITORY ACTIVITY” (THE UNIVERSITY OF TOKYO, priority 2013, published 2016).
# Molecular target: T1, Human autotaxin enzyme (Homo sapiens, UniProt Q13822)
# T1 construct: purchased R&D System
# Test: Evaluation of autotaxin inhibitor, Method B (Test Example 2): TG-mTMP fluorescence
# Format: biochemical
# Details: Assay Method B (Test Example 2), human autotaxin; read-out: Inhibitory Activity (autotaxin enzyme inhibitory activity, IC50 class)
# Experimental: (Method B) Evaluation of Autotaxin Inhibitor
# Solution A containing 25 mM Tris-HCl buffer (pH7.5), 100 mM NaCl, 5 mM MgCl2 and 0.1% BSA was prepared. Human autotaxin enzyme (purchased from R&D System) was diluted with Solution A, and 5 μL of which was added to a solution of test compound in DMSO. Furthermore, 5 μl of 0.5 μM TG-mTMP in Solution A was added and allowed to react at room temperature for 2 hours. 5 μl of 150 mM EDTA in Solution A was added to quench the reaction, and the fluorescent dye TokyoGreen, which was produced by the reaction, was detected. The fluorescence was detected using ViewLux (PerkinElmer, Inc.) with an excitation wavelength of 480 nm and a fluorescence wavelength of 540 nm.
row,IC50 [µM],Compound
1,0.01 to 0.1,CCCCCn1c(COCc2ccccc2)cc(=O)n2cc(-c3ccc(Cl)cc3)nc12 [Compound 371]
2,0.1 to 1,CCCCCn1c(Oc2ccccn2)cc(=O)n2cc(-c3ccc(Cl)cc3)nc12 [Compound 273]
3,0.01 to 0.1,COCCCCn1c(C)cc(=O)n2cc(-c3ccc(Cl)cc3)nc12 [Compound 124]
4,< 0.01,CCCCCn1c(C)c(CC(=O)NCC)c(=O)n2cc(-c3ccc(Cl)cc3)nc12 [Compound 181]
5,0.1 to 1,CCCCCn1c(C)cc(=O)n2cc(-c3cc4ccccc4o3)nc12 [Compound 143]
6,0.01 to 0.1,CCCCCn1c(N2CCCC2)cc(=O)n2cc(-c3ccc(Cl)cc3)nc12 [Compound 187]
7,0.1 to 1,CCCCCCCCOc1cc(=O)n2cc(-c3ccc(Cl)cc3)nc2n1CCCCC [Compound 263]
8,< 0.01,CCCCCn1c(Oc2nccs2)cc(=O)n2cc(-c3ccc(Cl)cc3)nc12 [Compound 268]
9,0.01 to 0.1,CCCCCn1c(N2CCN(CCc3ccccc3)CC2)cc(=O)n2cc(-c3ccc(Cl)cc3)nc12 [Compound 223]
10,0.1 to 1,CCCCCn1c(C)cc(=O)n2cc(-c3ccc4occc4c3)nc12 [Compound 146]

# Same assay, conditions: Assay Method: Method B (Test Example 2); read-out: Inhibitory Activity (Enzyme Inhibitory Activity, IC50)
row,IC50 [µM],Compound
1,0.01 to 0.1,CCCCCCn1c(C)cc(=O)n2cc(-c3ccc(Cl)cc3)nc12 [Compound 8]

# Molecular target: T1, Human autotaxin enzyme
# Test: Evaluation of autotaxin inhibitor, Method C (Test Example 3): 18:0 Lyso PC, choline assay, Resorufin fluorescence
# Format: biochemical
# Details: Assay Method C (Test Example 3), human autotaxin, 18:0 Lyso PC substrate; read-out: Inhibitory Activity (autotaxin enzyme inhibitory activity, IC50 class)
# Outline: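 Human autotaxin in Tris-HCl pH 7.5, 150 mM NaCl, 5 mM MgCl2, 0.05% Triton X-100 reacted 2 h at room temperature with 18:0 Lyso PC (200 μM solution added). Released choline detected via choline oxidase/peroxidase/Amplex-type reagent, resorufin fluorescence (ex 531/em 598 nm); inhibition vs no-compound and no-enzyme controls, concentration-response curve.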
row,IC50 [µM],Compound
1,0.01 to 0.1,N#CCCCCn1c(N2CCC(C(=O)O)CC2)cc(=O)n2cc(-c3ccc(C#N)cc3)nc12 [Compound 284]
2,< 0.01,O=C(O)[C@H](CCc1ccccc1)NC(=O)[C@@H]1C[C@@H](O)CN1c1cc(=O)n2cc(-c3ccc(Cl)cc3)nc2n1Cc1ccccc1 [Compound 751]
3,0.01 to 0.1,CCCCCn1c(-c2ccc(C(=O)NCC3CC3)cc2)cc(=O)n2cc(-c3ccc(Cl)cc3)nc12 [Compound 483]
4,0.1 to 1,CCCCCn1c(N2CCC[C@H]2C(=O)N2CCC(C(N)=O)C2)cc(=O)n2cc(-c3ccc(Cl)cc3)nc12 (stereo partly drawn) [Compound 701]
5,0.1 to 1,CCCCCn1c(-c2ccc(C(=O)Nc3ccc(OC)cc3)cc2)cc(=O)n2cc(-c3ccc(Cl)cc3)nc12 [Compound 471]
6,0.01 to 0.1,CCCCCn1c(-c2ccc(CO)cc2)cc(=O)n2cc(-c3ccc(Cl)cc3)nc12 [Compound 394]
7,< 0.01,CCCCCn1c(-c2ccc(C(=O)NC3COC3)cc2)cc(=O)n2cc(-c3ccc(Cl)cc3)nc12 [Compound 490]
8,0.01 to 0.1,CCn1c(N2CCC[C@H]2C(=O)N[C@H](C(=O)O)C(C)(C)C)cc(=O)n2cc(-c3ccc(Cl)cc3)nc12 [Compound 758]
9,0.1 to 1,CCCCCn1c(N2CCC[C@H]2C(=O)NCCN2CCCCC2)cc(=O)n2cc(-c3ccc(Cl)cc3)nc12 [Compound 643]
10,0.1 to 1,CCCCCn1c(NC2(C(=O)NCCC(=O)O)CC2)cc(=O)n2cc(-c3ccc(Cl)cc3)nc12 [Compound 625]
11,> 1,Cn1c(N2CCC[C@H]2C(=O)NCC(=O)O)cc(=O)n2cc(-c3ccc(Cl)cc3)nc12 [Compound 768]
12,0.01 to 0.1,CCCCCn1c(N2CCC[C@@H](C(=O)O)C2)cc(=O)n2cc(-c3ccc(Cl)cc3)nc12 [Compound 608]
13,0.01 to 0.1,CCCCCn1c(N2CCC[C@@H](C(=O)NCCC(=O)O)C2)cc(=O)n2cc(-c3ccc(Cl)cc3)nc12 [Compound 624]
14,0.01 to 0.1,CCCCCn1c(-c2cnc(C(=O)OC)nc2)cc(=O)n2cc(-c3ccc(Cl)cc3)nc12 [Compound 532]
15,0.1 to 1,CCCCCn1c(N2C[C@H](F)C[C@H]2C(=O)NC(C)(C)CC(=O)OCC)cc(=O)n2cc(-c3ccc(Cl)cc3)nc12 [Compound 595]
16,0.01 to 0.1,CCCCCn1c(N2CCC[C@H]2C(=O)NC2CCCCNC2=O)cc(=O)n2cc(-c3ccc(Cl)cc3)nc12 (stereo partly drawn) [Compound 694]
17,> 1,CCCCCn1c(N2CCC[C@H]2C(=O)NCCCNC)cc(=O)n2cc(-c3ccc(Cl)cc3)nc12 [Compound 661]
18,0.01 to 0.1,CCCCCn1c(N2CCC[C@H]2C(=O)N(C)CC(=O)N(C)CC(=O)OC)cc(=O)n2cc(-c3ccc(Cl)cc3)nc12 [Compound 684]

# Same assay, conditions: Assay Method C, human autotaxin, 18:0 Lyso PC substrate; read-out: Inhibitory Activity
row,IC50 [µM],Compound
1,> 1,CCOC(=O)Cc1cn(CCCC(F)(F)F)c2nc(-c3ccc(Cl)cc3)cn2c1=O [Compound 828]
